Data: patent US6680058B1, “Compositions and methods for contraception in or sterilization of mammals” (Board of Supervisors of Louisiana State University and …, priority 1997, dated 2004)
Where no end group is shown, it is not given here.

Assays:
[1] = test system: sexually immature female rats; test: Sexually immature female rats, two intravenous injections, examined after reaching breeding age (Examples 7-8); format: in vivo, rat
Protocol: Two sexually immature female rats from the same litter (age 33 days) were given two intravenous injections of saline control solution 24 hours apart. After the rats reached breeding age, they were examined 105 days post-inoculation. […] During a fourteen-day monitoring period 107 days to 121 days post-inoculation, each of the control rats completed two estrous cycles. The rats were then sacrificed and necropsied. The reproductive organs appeared histologically normal.
Two sexually immature female rats from the same litter as those of Example 7 (age 33 days) were given two intravenous injections of 500 μg GnRH/hecate fusion peptide in saline 24 hours apart. After the rats reached breeding age, they were examined 105 days post-inoculation. […] Unlike the control rats, insertion of a cotton-tipped swab into the vagina was difficult. […] The rats were then sacrificed and necropsied.

[2] = test system: gonadotropes in the pituitary and neurons in the brain bearing GnRH receptors; test: Rats, treatments generally similar to treatments 9-14, immunohistochemical staining (Example 23); format: in vivo, rat; conditions: fusion peptide administered
Protocol: Subsequent experiments were conducted on rats using treatments generally similar to treatments 9-14 above. […] The selective killing of these cells was seen after the GnRH-hecate fusion peptide was administered; and after the administration of GnRH alone, followed 10 minutes later by the administration of hecate alone.

GnRH receptor = molecular target: T1, GnRH receptor (Rattus norvegicus, UniProt P30969); test: Displacement of radiolabelled monoiodinated-GnRH from rat pituitary membranes (Example 24); format: binding; conditions: molar basis over a 1000-fold concentration range (n=6); native GnRH = 100%
T1 construct: specifically displaced radiolabelled monoiodinated-GnRH from rat pituitary membranes; from tissue; host or cells: rat pituitary membranes
T1 sequence (P30969 1-327): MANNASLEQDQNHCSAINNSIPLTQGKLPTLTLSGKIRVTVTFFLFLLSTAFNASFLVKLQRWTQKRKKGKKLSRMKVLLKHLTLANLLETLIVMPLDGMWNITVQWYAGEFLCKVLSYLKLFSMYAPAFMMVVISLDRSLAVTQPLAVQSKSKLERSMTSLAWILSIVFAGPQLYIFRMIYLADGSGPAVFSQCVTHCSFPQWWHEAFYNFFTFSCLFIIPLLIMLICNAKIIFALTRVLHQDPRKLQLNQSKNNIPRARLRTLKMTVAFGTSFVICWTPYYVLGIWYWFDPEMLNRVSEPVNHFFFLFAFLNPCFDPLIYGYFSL
Description: We also synthesized D-Lys^6GnRH (SEQ. ID NO. 13), so that hecate could be conjugated to the D-Lys^6, a position that could minimize interference with binding of the GnRH domain to the GnRH receptor. These synthetic peptides specifically displaced radiolabelled monoiodinated-GnRH from rat pituitary membranes.

[3] = test system: sexually mature female rabbits; test: Sexually mature female rabbits, intravenous GnRH-hecate, GnRH challenge day 6, sacrifice day 7 (Examples 47-48); format: in vivo, rabbit
Protocol: Nine sexually mature female rabbits were injected intravenously with saline containing 0 mg (n=4) (Treatment 47) or 10 mg GnRH-hecate (n=5) (Treatment 48). Rabbits were injected intramuscularly with GnRH on day 6 post-treatment. Blood samples were collected for radioimmunoassay of LH and FSH as described above, and the animals were sacrificed on day 7 post-treatment. […] Again, the effects were more pronounced on GnRH neurons than on staining of pituitary gonadotropes.
The number of ovulation sites in rabbits in Examples 47 and 48 treated with 10 mg GnRH-hecate were reduced as compared to saline controls. The mean number of ovulation sites in four saline controls equalled 12.2±5.4, with S.E.M.=2.7. The mean number of ovulation sites in the five rabbits given 10 mg of GnRH-hecate was 3.6±1.1, with S.E.M.=0.5. This difference from control was significant (p=0.025).
The “LH surge” (the level of LH at one hour post-GnRH challenge, minus the resting level before challenge) in the four controls was 61.2±16.5 ng/mL, with S.E.M.=8.3; and in the treated group was 49.6±26.1 ng/mL, with S.E.M.=12 (p=0.22). Thus there was a trend towards lower LH levels in the treated group.

[4] = two i.v. injections of 500 μg 24 hours apart at age 33 days, necropsy after day 121

GnRH-hecate: fusion peptide of modified GnRH bonded directly to the lytic peptide hecate, SEQ. ID NO. 3 (QHWSYGLRPGFALALKALKKALKKLKKALKKAL; ends and bridges not checked; also: GnRH part modified, modification not given here)
estrous cycling during fourteen-day monitoring period ([1]; two i.v. injections of 500 μg 24 hours apart at age 33 days, 107 to 121 days post-inoculation): neither of the treated rats demonstrated estrous or metestrous
insertion of a cotton-tipped swab into the vagina ([1]; two i.v. injections of 500 μg 24 hours apart at age 33 days, 105 days post-inoculation): difficult
ovarian follicles at necropsy [1, 4]: contained no large follicles, and had a high number of atretic follicles
uterine and oviductal epithelia at necropsy [1, 4]: thinned, inactive
appearance of external genitalia ([1]; two i.v. injections of 500 μg in saline 24 hours apart at age 33 days, examined 105 days post-inoculation): appeared small
LH and FSH secretion by pituitary cells [2]: no longer secreted either LH or FSH
selective cell killing seen with immunohistochemical staining ([2]; treatments generally similar to treatments 9-14): selectively killed (1) gonadotropes in the pituitary, and (2) neurons in the brain bearing GnRH receptors
specific displacement of the radiolabelled peptide relative to equimolar concentrations of GnRH (GnRH receptor): 123%±4%
amount of LH released in response to GnRH ([3]; 10 mg i.v. (n=5), GnRH i.m. on day 6 post-treatment): lower in the treated animals than in the controls
mean number of ovulation sites ([3]; 10 mg i.v., five rabbits, S.E.M.=0.5, saline controls 12.2±5.4, p=0.025): 3.6±1.1
LH surge (level of LH at one hour post-GnRH challenge, minus the resting level before challenge) ([3]; 10 mg i.v., S.E.M.=12, controls 61.2±16.5 ng/mL, p=0.22): 49.6 ± 26.1 ng/mL
effects on peripheral tissues ([3]; 10 mg i.v., day 7): No effects
effects on pituitary weight ([3]; 10 mg i.v., day 7): No effects
numbers of GnRH-induced ovulations ([3]; 10 mg i.v., day 7): reduced
numbers of tertiary ovarian follicles ([3]; 10 mg i.v., day 7): reduced
